PubChem BioAssay AID1117285 (Broad Institute, 2014)
Records with an inconclusive call do not appear. The source made the active and inactive calls.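 How the source made its calls: active means called active in every replicate test, with a falling signal and AC50 within twice the top valid dose; inconclusive means replicate tests disagree in their calls; inactive means inactive in every replicate test, including a rising signal.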

Target: Leucyl-cystinyl aminopeptidase (Mus musculus) (UniProt Q8C129)
Sequence (Q8C129 whole entry, looked up): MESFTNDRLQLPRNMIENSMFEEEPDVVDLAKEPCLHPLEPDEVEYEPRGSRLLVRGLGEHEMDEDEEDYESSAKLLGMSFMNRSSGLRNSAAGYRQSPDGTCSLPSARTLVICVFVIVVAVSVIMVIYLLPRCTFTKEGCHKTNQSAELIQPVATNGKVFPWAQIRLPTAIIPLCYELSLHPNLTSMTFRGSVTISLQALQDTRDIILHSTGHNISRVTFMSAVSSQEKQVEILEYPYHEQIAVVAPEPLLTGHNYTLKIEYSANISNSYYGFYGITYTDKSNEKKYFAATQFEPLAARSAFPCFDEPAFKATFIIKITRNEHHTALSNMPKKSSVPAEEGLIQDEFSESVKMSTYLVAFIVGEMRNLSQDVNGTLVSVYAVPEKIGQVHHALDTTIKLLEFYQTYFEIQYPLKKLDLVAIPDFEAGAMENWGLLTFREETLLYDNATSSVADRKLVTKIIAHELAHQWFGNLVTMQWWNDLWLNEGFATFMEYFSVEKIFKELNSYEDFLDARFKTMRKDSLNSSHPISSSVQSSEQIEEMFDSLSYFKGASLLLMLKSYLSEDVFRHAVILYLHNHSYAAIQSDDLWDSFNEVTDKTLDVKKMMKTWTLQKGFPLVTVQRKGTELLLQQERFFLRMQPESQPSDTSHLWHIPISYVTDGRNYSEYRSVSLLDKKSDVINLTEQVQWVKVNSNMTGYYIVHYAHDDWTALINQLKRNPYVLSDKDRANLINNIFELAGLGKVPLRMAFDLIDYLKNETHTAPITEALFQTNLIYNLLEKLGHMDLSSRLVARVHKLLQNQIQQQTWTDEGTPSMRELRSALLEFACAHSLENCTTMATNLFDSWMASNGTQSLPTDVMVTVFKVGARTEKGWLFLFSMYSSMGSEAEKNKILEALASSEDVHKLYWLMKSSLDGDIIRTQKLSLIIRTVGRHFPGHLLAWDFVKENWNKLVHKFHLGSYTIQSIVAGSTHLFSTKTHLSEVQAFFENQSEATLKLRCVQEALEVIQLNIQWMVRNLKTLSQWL
Assay: inhibition of mouse IRAP Leu-AMC hydrolysis – biochemical, dry powder samples, set 2, selectivity assay for ERAP1 modulator project, dose response (AID 1117285)
Settings: purified IRAP, Leu-AMC hydrolysis fluorescence, 1 h

CC(=O)N1CCN(C(=O)C2(NC(=O)Nc3cccc(C(F)(F)F)c3)CCCCC2)CC1
max activity % (lower = more inhibition) (at 0.38 µM): inactive

O=S(=O)(Nc1cc(C(F)(F)F)ccc1N1CCCCC1)c1ccc(F)cc1
max activity % (lower = more inhibition) (at 0.195 µM): inactive

COc1ccc(C(=O)O)cc1S(=O)(=O)Nc1ccccc1N1CCCCC1
max activity % (lower = more inhibition): inactive

COc1ccc(C(=O)Nc2cc(C)ccc2N2CCCCC2)cc1S(=O)(=O)O
max activity % (lower = more inhibition) (at 50 µM): inactive

N#Cc1ccc(S(=O)(=O)Nc2cc(C(F)(F)F)ccc2N2CCCCC2)cc1
max activity % (lower = more inhibition) (at 0.8 µM): inactive

O=[N+]([O-])c1cccc(S(=O)(=O)Nc2cc(C(F)(F)F)ccc2N2CCCCC2)c1
max activity % (lower = more inhibition) (at 0.195 µM): inactive

CC(=O)N1CCN(C(=O)[C@@H]2CCN2C(=O)Nc2ccc(C)cc2)CC1
AC50: > 100 µM (inactive)

COc1ccc(C(=O)O)cc1S(=O)(=O)Nc1cc(C(F)(F)F)ccc1N1CCOCC1
max activity % (lower = more inhibition): inactive

O=[N+]([O-])c1ccc(S(=O)(=O)Nc2cc(C(F)(F)F)ccc2N2CCCCC2)c([N+](=O)[O-])c1
max activity % (lower = more inhibition) (at 0.8 µM): inactive

O=S(=O)(Nc1cc(C(F)(F)F)ccc1N1CCCCC1)c1ccccc1
max activity % (lower = more inhibition) (at 0.195 µM): inactive

CC(=O)N1CCN(C(=O)C2(NC(=O)Nc3ccc(F)cc3)CCCC2)CC1
max activity % (lower = more inhibition) (at 3 µM): inactive

COc1ccc(C(=O)O)cc1S(=O)(=O)Nc1cc(C(F)(F)F)ccc1N1CCCCC1
max activity % (lower = more inhibition): inactive

COc1ccc(C(=O)O)cc1S(=O)(=O)Nc1cc(C(F)(F)F)ccc1N(C)C
max activity % (lower = more inhibition): inactive

COC(=O)[C@H](CCCCN)NC(=O)c1ccc(N)c(NC(=O)[C@@H](N)CCc2ccccc2)c1
AC50: > 100 µM (inactive)

COc1ccc(NC(=O)NC2(C(=O)N3CCN(C(C)=O)CC3)CCCCC2)cc1
max activity % (lower = more inhibition) (at 12 µM): inactive

CC(=O)N1CCN(C(=O)C2(NC(=O)Nc3ccccc3)CCCC2)CC1
max activity % (lower = more inhibition) (at 0.195 µM): inactive

CC(=O)N1CCN(C(=O)C2(NC(=O)Nc3ccc(C(C)C)cc3)CCCC2)CC1
max activity % (lower = more inhibition) (at 0.195 µM): inactive

COc1ccc(C(=O)Nc2ccccc2N2CCCCC2)cc1S(=O)(=O)O
max activity % (lower = more inhibition) (at 50 µM): inactive

CC(=O)N1CCN(C(=O)C(C)(C)NC(=O)Nc2ccc(C)cc2)CC1
max activity % (lower = more inhibition) (at 50 µM): inactive

CC(=O)N1CCN(C(=O)C2(NC(=O)Nc3ccc(Cl)cc3)CCCCC2)CC1
max activity % (lower = more inhibition) (at 0.1 µM): inactive

COc1ccc(C(=O)O)cc1S(=O)(=O)Nc1cc(C)ccc1N1CCCCC1
max activity % (lower = more inhibition): inactive

CC(=O)N1CCN(C(=O)CNC(=O)Nc2ccc(C)cc2)CC1
max activity % (lower = more inhibition) (at 0.1 µM): inactive

CC(=O)N1CCN(C(=O)C2(NC(=O)NC(C)(C)C)CCCCC2)CC1
max activity % (lower = more inhibition) (at 0.1 µM): inactive

COc1ccc(C(=O)Nc2cccc(C(F)(F)F)c2)cc1S(=O)(=O)O
max activity % (lower = more inhibition) (at 50 µM): inactive

CC(=O)N1CCN(C(=O)C2(NC(=O)Nc3ccccc3)CCCCC2)CC1
max activity % (lower = more inhibition) (at 50 µM): inactive

NC(=NCCc1c[nH]c2ccccc12)NS(=O)(=O)c1cc(F)ccc1F
max activity % (lower = more inhibition) (at 0.195 µM): inactive

COc1ccc(C(=O)Nc2cc(C(F)(F)F)ccc2N2CCOCC2)cc1S(=O)(=O)O
max activity % (lower = more inhibition) (at 0.1 µM): inactive

COc1ccc(C(=O)Nc2cc(C(F)(F)F)ccc2N2CCCC2)cc1S(=O)(=O)O
max activity % (lower = more inhibition) (at 0.195 µM): inactive

CC(=O)N1CCN(C(=O)C2(NC(=O)Nc3ccc(C(C)C)cc3)CCCCC2)CC1
max activity % (lower = more inhibition) (at 0.38 µM): inactive

CC(=O)N1CCN(C(=O)C2(NC(=O)Nc3ccc(C)cc3)CCCCC2)CC1
max activity % (lower = more inhibition) (at 0.1 µM): inactive

COc1ccc(C(=O)Nc2cc(C(F)(F)F)ccc2N2CCCCC2)cc1S(=O)(=O)O
max activity % (lower = more inhibition) (at 50 µM): inactive

O=S(=O)(Nc1cc(C(F)(F)F)ccc1N1CCCCC1)c1cc(Cl)cc(Cl)c1
max activity % (lower = more inhibition) (at 0.38 µM): inactive

CC(=O)N1CCN(C(=O)C2(NC(=O)NCCc3ccccc3)CCCCC2)CC1
max activity % (lower = more inhibition) (at 50 µM): inactive

COc1ccc(S(=O)(=O)Nc2cc(C(F)(F)F)ccc2N2CCCCC2)cc1
max activity % (lower = more inhibition) (at 0.195 µM): inactive

CC(=O)N1CCN(C(=O)C2CCCN2C(=O)Nc2ccc(C)cc2)CC1 (stereo not given)
max activity % (lower = more inhibition) (at 0.195 µM): inactive

CC(=O)N1CCN(C(=O)C2(NC(=O)Nc3cccc(F)c3)CCCCC2)CC1
max activity % (lower = more inhibition) (at 0.195 µM): inactive

Cn1cnc(S(=O)(=O)Nc2cc(C(F)(F)F)ccc2N2CCCCC2)c1
max activity % (lower = more inhibition) (at 0.8 µM): inactive

CC(=O)N1CCN(C(=O)C2(NC(=O)Nc3ccc(C(F)(F)F)cc3)CCCC2)CC1
max activity % (lower = more inhibition) (at 0.1 µM): inactive

COc1ccc(C(=O)Nc2cc(F)ccc2N2CCCCC2)cc1S(=O)(=O)O
max activity % (lower = more inhibition) (at 50 µM): inactive

COc1ccc(C(=O)O)cc1S(=O)(=O)Nc1cc(F)ccc1N1CCCCC1
max activity % (lower = more inhibition): inactive

CC(=O)N1CCN(C(=O)C2(NC(=O)Nc3ccccc3F)CCCCC2)CC1
max activity % (lower = more inhibition) (at 0.8 µM): inactive | max activity % (lower = more inhibition) (at 50 µM): inactive

CC(=O)N1CCN(C(=O)C2(NC(=O)Nc3ccc(F)cc3)CCCCC2)CC1
max activity % (lower = more inhibition) (at 50 µM): inactive

O=S(=O)(Nc1cc(C(F)(F)F)ccc1N1CCCCC1)c1ccc(C(F)(F)F)cc1
max activity % (lower = more inhibition) (at 3 µM): inactive

COc1cccc(NC(=O)NC2(C(=O)N3CCN(C(C)=O)CC3)CCCCC2)c1
max activity % (lower = more inhibition) (at 12 µM): inactive

Cc1ccccc1S(=O)(=O)Nc1cc(C(F)(F)F)ccc1N1CCCCC1
max activity % (lower = more inhibition) (at 0.195 µM): inactive

O=S(=O)(Nc1cc(C(F)(F)F)ccc1N1CCCCC1)c1ccc(Br)cc1
max activity % (lower = more inhibition) (at 3 µM): inactive

CC(=O)N1CCN(C(=O)C2(NC(=O)Nc3ccc(C(F)(F)F)cc3)CCCCC2)CC1
max activity % (lower = more inhibition) (at 0.195 µM): inactive

O=S(=O)(Nc1cc(C(F)(F)F)ccc1N1CCCCC1)c1ccc(Cl)cc1
max activity % (lower = more inhibition) (at 0.8 µM): inactive

Cc1ccc(NC(=O)NC2(C(=O)N3CCOCC3)CCCCC2)cc1
max activity % (lower = more inhibition) (at 0.1 µM): inactive

COC(=O)c1ccc(OC)c(S(=O)(=O)Nc2cc(C(F)(F)F)ccc2N2CCCCC2)c1
max activity % (lower = more inhibition): inactive

O=S(=O)(Nc1cc(C(F)(F)F)ccc1N1CCCCC1)c1ccc(-c2ccccc2)cc1
max activity % (lower = more inhibition) (at 3 µM): inactive

CC(=O)N1CCN(C(=O)C2(NC(=O)Nc3ccccc3C(F)(F)F)CCCCC2)CC1
max activity % (lower = more inhibition) (at 0.195 µM): inactive

Cc1ccc(NC(=O)NC2(C(=O)N3CCN(c4ccccc4)CC3)CCCCC2)cc1
max activity % (lower = more inhibition) (at 0.38 µM): inactive

O=C(Nc1cc(C(F)(F)F)ccc1N1CCCCC1)c1ccc(S(=O)(=O)O)cc1
max activity % (lower = more inhibition) (at 50 µM): inactive
